# Source: US20090318500A1, “4-(2, 6-Dichloro-benzoylamino)-1H-pyrazole-3-carboxylic acid (1-methanesulphonyl-piperidin-4-yl)-amide for the Treatment of Cancer” (Astex Therapeutics limited, priority 2006, published 2009)
# Like-named read-outs stand apart in the source and are kept apart here.
# Legend:
# [1] = tested on: malignant cells from B-cell chronic lymphocytic leukemia (B-CLL); settings: in vitro; cited from earlier work
# [2] = Determination of oral bioavailability; assay type: in vivo; settings: balb/c, mouse, plasma, 5 mg/kg, mice
# Experimental: The oral bioavailability of the compound of formula (I) may be determined as follows.
# The test compound is administered as a solution both I.V. and orally to balb/c mice at the following dose level and dose formulations; • 1 mg/kg IV formulated in 10%DMSO/90% (2-hydroxypropyl)-β-cyclodextrin (25% w/v); and • 5 mg/kg PO formulated in 10% DMSO/20% water/70% PEG200.
# At various time points after dosing, blood samples are taken in heparinised tubes and the plasma fraction is collected for analysis. The analysis is undertaken by LC-MS/MS after protein precipitation and the samples are quantified by comparison with a standard calibration line constructed for the test compound. The area under the curve (AUC) is calculated from the plasma level vs time profile by standard methods. The oral bioavailability as a percentage is calculated from the following equation: […]
# [3] = tested on: transcription in HCT-116 cells
# HCT-116 cell line = assay: Anti-proliferative activity, Alamar Blue assay; assay type: cell-based, human; settings: for IC50: read-out: HCT-116 cell proliferation IC50, 72 hours with compound
# Experimental: (§1) Inhibition of cell growth is measured using the Alamar Blue assay (Nociari, M. M, Shalev, A., Benias, P., Russo, C. Journal of Immunological Methods 1998, 213, 157-167). The method is based on the ability of viable cells to reduce resazurin to its fluorescent product resorufin. For each proliferation assay cells are plated onto 96 well plates and allowed to recover for 16 hours prior to the addition of inhibitor compounds for a further 72 hours. At the end of the incubation period 10% (v/v) Alamar Blue is added and incubated for a further 6 hours prior to determination of fluorescent product at 535nM ex/590nM em. In the case of the non-proliferating cell assay cells are maintained at confluence for 96 hour prior to the addition of inhibitor compounds for a further 72 hours. The number of viable cells is determined by Alamar Blue assay as before. Cell lines can be obtained from the ECACC (European Collection of cell Cultures).
# as §1, with “535 nM ex/590 nM” for “535nM ex/590nM”, “EC ACC” for “ECACC”
# [4] = Vapour sorption/desorption analysis; assay type: physicochemical; settings: 25 °C
# Experimental: Approximately 20 mg of sample was placed into a wire-mesh vapour sorption balance pan and loaded into an ‘IgaSorp’ vapour sorption balance (Hiden Analytical Instruments) held at 25±0.1° C. The sample was then dried by maintaining a 0% humidity environment (using mass flow control apparatus) until no further weight change was recorded. Subsequently, the sample was then subjected to a ramping profile from 0-90% relative humidity (% RH) at 10% RH increments, maintaining the sample at each step until equilibration had been attained (99.5% step completion).
# Upon reaching equilibration, the % RH within the apparatus was ramped to the next step and the equilibration procedure repeated. After completion of the sorption cycle, the sample was then dried using the same procedure. The weight change during the sorption/desorption cycles was then monitored, allowing for the hygroscopic nature of the sample to be determined.
# CDK1/CyclinB = target: T1, CDK1/CyclinB (Homo sapiens, UniProt P06493); assay: Activated CDK1/CyclinB kinase inhibitory activity assay; assay type: biochemical
# T1 construct: purchased Upstate Discovery
# Experimental: CDK1/CyclinB assay is identical to the CDK2/CyclinA above except that CDK1/CyclinB (Upstate Discovery) is used and the enzyme is diluted to 6.25 nM.
# [5] = tested on: human tumour derived cell lines; assay: Xenograft studies; assay type: in vivo, nude mice; settings: sub-cutaneous xenografts, dosed orally
# From the text: These biomarkers include suppression of phosphorylation of substrates of the cyclin dependent kinases e.g. retinoblastoma protein. The compound is effective when given in a range of different schedules including chronic dosing for several weeks.
# T1 sequence (P06493 whole entry): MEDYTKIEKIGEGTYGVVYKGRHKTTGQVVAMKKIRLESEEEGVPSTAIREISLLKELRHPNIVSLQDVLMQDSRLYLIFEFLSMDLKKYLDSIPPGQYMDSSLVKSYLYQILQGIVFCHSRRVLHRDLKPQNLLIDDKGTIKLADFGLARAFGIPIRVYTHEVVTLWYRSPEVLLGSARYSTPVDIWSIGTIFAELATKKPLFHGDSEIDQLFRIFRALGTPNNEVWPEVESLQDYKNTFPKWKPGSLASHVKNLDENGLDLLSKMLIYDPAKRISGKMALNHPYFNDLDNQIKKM
# T1 sequence (P14635 whole entry partner): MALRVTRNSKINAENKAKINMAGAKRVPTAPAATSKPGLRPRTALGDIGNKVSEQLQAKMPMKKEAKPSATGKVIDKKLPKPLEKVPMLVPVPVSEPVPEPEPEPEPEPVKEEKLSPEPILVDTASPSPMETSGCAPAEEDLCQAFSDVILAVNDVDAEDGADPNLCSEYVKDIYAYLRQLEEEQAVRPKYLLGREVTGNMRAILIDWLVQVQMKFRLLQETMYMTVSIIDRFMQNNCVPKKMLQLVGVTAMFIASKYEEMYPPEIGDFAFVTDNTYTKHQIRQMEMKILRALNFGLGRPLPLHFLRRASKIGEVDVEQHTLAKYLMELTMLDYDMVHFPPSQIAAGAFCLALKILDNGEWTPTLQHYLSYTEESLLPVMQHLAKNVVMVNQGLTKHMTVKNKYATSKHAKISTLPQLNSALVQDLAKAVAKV
compound,measurement,setting,value
CC[C@H](CO)Nc1nc(NCc2ccccc2)c2ncn(C(C)C)c2n1 [CYC 202],Apoptosis of B-CLL cells,[1],induce in vitro apoptosis
CN1CC[C@H](c2c(O)cc(O)c3c(=O)cc(-c4ccccc4Cl)oc23)[C@H](O)C1 [Flavopiridol],Apoptosis of B-CLL cells,[1],induce in vitro apoptosis
"CS(=O)(=O)N1CCC(NC(=O)c2n[nH]cc2NC(=O)c2c(Cl)cccc2Cl)CC1 [compound of the invention, 4-(2,6-dichloro-benzoylamino)-1H-pyrazole-3-carboxylic acid (1-methanesulphonyl-piperidin-4-yl)-amide]",bioavailability,[2],40 to 50%
same,IC50 for transcription higher than IC50 for proliferation,[3],~100 fold
same,More potent anti-proliferative effect on HCT-116 compared to difluoro-analogue,HCT-116 cell line,6-7 fold
same,IC50,HCT-116 cell line,< 1000 nM
same,IC50,HCT-116 cell line; listed as Compound of the Invention,110 nM
same,Weight loss during initial drying,[4]; 0% RH,approximately 0.01%
same,Total weight increase,[4]; upon equilibration at 90% RH,0.24%
same,IC50,CDK1/CyclinB,< 1000 nM
same,Effect on tumour growth in xenografts,[5],inhibition of tumour growth
